Test results as given in publication PMC3297008, “Novel Marine Phenazines as Potential Cancer Chemopreventive and Anti-Inflammatory Agents” (Marine Drugs, 2012).
Read-outs that look alike come from different tables or passages of the source.

Legend:
[1] = tested on: NFκB; assay: TNF-α-induced NFκB luciferase reporter assay in stably-transfected human embryonic kidney cells 293; assay type: cell-based; conditions: human embryonic kidney cells 293 NFκB reporter, TNF-α 2 ng/mL, 6 h; read-out: IC50, inhibition of TNF-α-induced NFκB activity
Protocol: Activation of NFκB may promote cell proliferation or prevent cell death through apoptosis. Inhibition of NFκB signaling has potential application for the treatment or prevention of cancer; some inhibitors are known. […] […].
We employed human embryonic kidney cells 293 Panomic (Fremont, CA, USA) for monitoring changes occurring along the NFκB pathway. Stable constructed cells were seeded into sterile 96-well plate at 20 × 10^3 cells per well. Cells maintained in Dulbecco’s modified Eagle’s medium (DMEM) Invitrogen Co. (Carlsbad, CA, USA), supplemented with 10% FBS, 100 units/mL penicillin, 100 µg/mL streptomycin, 2 mM L-glutamine. After 48 h incubation, the medium was replaced and cells were treated with various concentration of test substances dissolved in PBS. TNF-α (Human, Recombinant, E. coli, Calbiochem, Gibbstown, NJ, USA) was used as an activator at a concentration of 2 ng/mL (0.14 nM). The plate was incubated for 6 h. Spent medium was discarded and the cells were washed once with PBS. Cells were lysed using 50 µL (for 96-well plate) Reporter Lysis Buffer from Promega, by incubating for 5 min on a shaker, and stored at −80 °C. The luciferase assay was performed using the Luc assay system from Promega (Madison, WI, USA). The gene product, luciferase enzyme, reacts with luciferase substrate, emitting light which was detected using a luminometer (LUMIstar Galaxy BMG). Data for NFκB constructs are expressed as IC50 values (i.e., concentration required to inhibit TNF-activated NFκB activity by 50%).

[2] = tested on: RAW 264.7 cells; assay: Cell viability (SRB) of RAW 264.7 cells in the NO assay; assay type: cell-based; conditions: 50 µM
[3] = tested on: PGE2 production in LPS-induced RAW 264.7 cells; assay: LPS-induced PGE2 production in RAW 264.7 cells (ELISA); assay type: cell-based; conditions: Mus musculus
Protocol: RAW 264.7 cells (1 × 10^5 cells/well, 200 µL) were incubated in a 96-well culture plate in the presence of 5% CO2 at 37 °C for 24 h. The medium was changed to non-colored DMEM containing 5% FBS, and the cells were treated with various concentrations of compounds for 30 min followed by 1 μg/mL of LPS treatment for 24 h. Cell media were collected, diluted 18-times and used for measuring PGE2. Nunc-Immuno 96-well plates were coated with secondary antibody (goat anti-mouse IgG) affinity purified (Jackson Immuno Research Laboratories). Aliquots of cell media were added to the immune plate with primary PGE2 monoclonal antibody (Cayman Chemical) and a tracer PGE2-acetylcholinesterase (Cayman Chemical) and incubated overnight at room temperature in the dark. The next day, the wells were aspirated, washed, 200 µL of Elman’s reagent was added in each well, and incubated 2–5 h at 37 °C out of direct light until control wells reach an optical density 0.4–0.5. Gentle rotating/shaking was used to decrease the time required for color development. Absorbance was read at 412 nm. The PGE2 concentration of each sample was calculated from a PGE2 standard curve (PGE2 from Cayman Chemical). The percent inhibition as a function of the inhibitor concentration was graphed to determine the IC50 values (concentration at which there was 50% inhibition).

[4] = tested on: NO production in LPS-induced RAW 264.7 cells; assay: LPS-induced NO production in RAW 264.7 cells (Griess reagent); conditions: Mus musculus
Protocol: The amount of nitrite was measured using the Griess reagent to assess the NO production [47, 48]. […] The cells were treated with various concentrations of compounds dissolved in phenol-red free DMEM for 30 min followed by 1 μg/mL of LPS treatment for 24 h. […] The standard curve was created by using known concentrations of sodium nitrite.

[5] = tested on: NFκB; design: method as in PMID 21105712; conditions: earlier work; read-out: IC50, inhibition of NFκB; cited from earlier work
[6] = tested on: iNOS; design: method as in PMID 21105712; conditions: cited from earlier work
[7] = tested on: quinone reductase 1 (NQ01, QR1); design: method as in PMID 21187465; conditions: cell culture; cited from earlier work
[8] = tested on: glutathione S-transferase (GST); design: method as in PMID 21187465; conditions: cell culture; cited from earlier work
[9] = design: method as in PMID 21187465; conditions: cited from earlier work

Oc1ccc(/C=C/c2cc(O)cc(O)c2)cc1 [Resveratrol, resveratrol, reference compound]
IC50 [1]: 2.5 ± 0.3 µM | NO % cell survival [2]: 86.9 ± 3.9% | inhibition at 50 µM ([3]; RAW264.7, read-out: PGE2 % inhibition (50 µM)): 70.2 ± 13.9% | IC50 ([3]; RAW264.7, read-out: PGE2 IC50): 2.5 ± 0.43 µM | inhibition at 50 µM ([4]; RAW264.7, read-out: NO % inhibition (50 µM), LPS-induced RAW 264.7 cells, 50 µM): 93 ± 0.8% | IC50 ([4]; RAW264.7, read-out: NO IC50): 31.9 ± 1.8 µM

Cc1ccc(S(=O)(=O)/C=C/C#N)cc1 [BAY-11-7082, reference compound]
IC50 [1]: 2 ± 0.28 µM

Oc1c(Br)ccc2nc3ccccc3nc12 [2-bromo-1-hydroxyphenazine]
IC50 [5]: 73 µM | inhibition of iNOS activity [6]: did not inhibit iNOS activity

Cc1ccc(S(=O)(=O)N[C@@H](Cc2ccccc2)C(=O)CCl)cc1 [TPCK, N-tosyl-L-phenylalanyl chloromethyl ketone, reference compound]
IC50 [1]: 3.8 µM

Oc1c(Br)cc(Br)c2nc3ccccc3nc12 [2,4-dibromo-1-hydroxyphenazine]
activation of QR1 [7]: activate | activation of glutathione S-transferase (GST) [8]: activate | bioavailability [9]: poor bioavailability | in vivo activity [9]: low
